Measured values from paper PMC8550792, “Evolution of kinase polypharmacology across HSP90 drug discovery” (Cell Chemical Biology, 2021).

What was measured:
Assay in all cases: biochemical
Assay type in all cases: biochemical
382 unique human kinases [1] = target: T1, 382 unique human kinases (Homo sapiens, UniProt O15264); settings: P38d/MAPK13, 10 uM; for remaining activity at 10 µM: read-out: % Enzyme Activity (relative to DMSO controls)
T1 construct: purchased Reaction Biology (HotSpot contract assay)
T1 sequence (O15264 1-365): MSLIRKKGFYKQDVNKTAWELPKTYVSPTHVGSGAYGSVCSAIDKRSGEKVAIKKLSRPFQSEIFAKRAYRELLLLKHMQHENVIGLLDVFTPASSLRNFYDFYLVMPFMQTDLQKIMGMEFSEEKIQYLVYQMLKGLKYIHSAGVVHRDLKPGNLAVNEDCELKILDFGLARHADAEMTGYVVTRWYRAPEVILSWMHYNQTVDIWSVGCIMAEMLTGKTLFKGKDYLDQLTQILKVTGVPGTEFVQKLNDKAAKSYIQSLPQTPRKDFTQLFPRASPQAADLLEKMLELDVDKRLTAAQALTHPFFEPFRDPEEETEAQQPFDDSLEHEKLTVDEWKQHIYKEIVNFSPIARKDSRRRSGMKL

382 unique human kinases [2] = target: T2, 382 unique human kinases (Homo sapiens, UniProt O96017); settings: kinase CHK2, compound 10 uM; for remaining activity at 10 µM: read-out: % Enzyme Activity (relative to DMSO controls)
T2 construct: purchased Reaction Biology (HotSpot contract assay)
T2 sequence (O96017 whole entry): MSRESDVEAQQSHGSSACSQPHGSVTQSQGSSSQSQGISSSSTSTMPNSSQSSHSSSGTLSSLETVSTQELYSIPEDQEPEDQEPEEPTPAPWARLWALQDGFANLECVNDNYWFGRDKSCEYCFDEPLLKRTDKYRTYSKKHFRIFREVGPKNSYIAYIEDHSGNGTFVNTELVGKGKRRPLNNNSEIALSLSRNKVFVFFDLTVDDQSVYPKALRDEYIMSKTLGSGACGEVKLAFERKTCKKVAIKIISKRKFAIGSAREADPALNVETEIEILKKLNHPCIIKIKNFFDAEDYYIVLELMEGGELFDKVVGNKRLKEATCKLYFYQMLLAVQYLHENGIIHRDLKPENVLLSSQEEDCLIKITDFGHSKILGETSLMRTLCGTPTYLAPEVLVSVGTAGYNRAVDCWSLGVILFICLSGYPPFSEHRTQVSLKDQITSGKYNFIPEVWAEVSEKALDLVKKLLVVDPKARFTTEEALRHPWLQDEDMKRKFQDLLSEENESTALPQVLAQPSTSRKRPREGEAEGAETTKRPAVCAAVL

382 unique human kinases [3] = target: T3, 382 unique human kinases (Homo sapiens, UniProt P10721, T670I); settings: c-Kit (T670I); 10 uM; read-out: % Enzyme Activity (relative to DMSO controls)
T3 construct: purchased Reaction Biology (HotSpot contract assay)
T3 sequence (P10721 26-976 T670I): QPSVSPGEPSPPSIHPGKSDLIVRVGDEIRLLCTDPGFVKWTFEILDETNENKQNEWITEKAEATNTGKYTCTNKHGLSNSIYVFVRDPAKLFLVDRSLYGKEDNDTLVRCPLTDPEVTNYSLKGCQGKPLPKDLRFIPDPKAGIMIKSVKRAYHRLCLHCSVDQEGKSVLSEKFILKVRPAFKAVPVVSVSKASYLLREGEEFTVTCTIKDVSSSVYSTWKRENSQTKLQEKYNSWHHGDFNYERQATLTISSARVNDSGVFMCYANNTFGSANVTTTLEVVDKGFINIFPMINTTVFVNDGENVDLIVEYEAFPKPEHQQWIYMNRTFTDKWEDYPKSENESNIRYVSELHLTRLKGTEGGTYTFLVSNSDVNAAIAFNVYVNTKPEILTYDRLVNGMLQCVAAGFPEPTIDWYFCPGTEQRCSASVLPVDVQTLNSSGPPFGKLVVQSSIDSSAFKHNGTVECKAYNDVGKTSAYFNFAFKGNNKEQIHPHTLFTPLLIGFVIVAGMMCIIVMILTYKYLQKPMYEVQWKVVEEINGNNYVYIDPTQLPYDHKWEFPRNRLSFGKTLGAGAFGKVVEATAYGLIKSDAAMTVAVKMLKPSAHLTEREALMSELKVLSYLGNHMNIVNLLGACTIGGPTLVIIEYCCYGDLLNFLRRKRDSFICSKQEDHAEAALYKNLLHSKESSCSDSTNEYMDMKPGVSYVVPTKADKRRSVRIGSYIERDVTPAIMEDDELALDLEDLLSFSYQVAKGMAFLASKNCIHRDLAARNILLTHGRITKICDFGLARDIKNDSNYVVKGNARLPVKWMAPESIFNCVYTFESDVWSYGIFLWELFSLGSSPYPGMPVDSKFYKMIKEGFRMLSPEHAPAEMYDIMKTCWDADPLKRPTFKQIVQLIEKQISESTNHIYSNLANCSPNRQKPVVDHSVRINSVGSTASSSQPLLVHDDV

382 unique human kinases [4] = target: T4, 382 unique human kinases (Homo sapiens, UniProt P21802, E565G); settings: kinase FGFR2 (E565G), compound 10 uM; for remaining activity at 10 µM: read-out: % Enzyme Activity (relative to DMSO controls)
T4 construct: purchased Reaction Biology (HotSpot contract assay)
T4 sequence (P21802 22-821 E565G): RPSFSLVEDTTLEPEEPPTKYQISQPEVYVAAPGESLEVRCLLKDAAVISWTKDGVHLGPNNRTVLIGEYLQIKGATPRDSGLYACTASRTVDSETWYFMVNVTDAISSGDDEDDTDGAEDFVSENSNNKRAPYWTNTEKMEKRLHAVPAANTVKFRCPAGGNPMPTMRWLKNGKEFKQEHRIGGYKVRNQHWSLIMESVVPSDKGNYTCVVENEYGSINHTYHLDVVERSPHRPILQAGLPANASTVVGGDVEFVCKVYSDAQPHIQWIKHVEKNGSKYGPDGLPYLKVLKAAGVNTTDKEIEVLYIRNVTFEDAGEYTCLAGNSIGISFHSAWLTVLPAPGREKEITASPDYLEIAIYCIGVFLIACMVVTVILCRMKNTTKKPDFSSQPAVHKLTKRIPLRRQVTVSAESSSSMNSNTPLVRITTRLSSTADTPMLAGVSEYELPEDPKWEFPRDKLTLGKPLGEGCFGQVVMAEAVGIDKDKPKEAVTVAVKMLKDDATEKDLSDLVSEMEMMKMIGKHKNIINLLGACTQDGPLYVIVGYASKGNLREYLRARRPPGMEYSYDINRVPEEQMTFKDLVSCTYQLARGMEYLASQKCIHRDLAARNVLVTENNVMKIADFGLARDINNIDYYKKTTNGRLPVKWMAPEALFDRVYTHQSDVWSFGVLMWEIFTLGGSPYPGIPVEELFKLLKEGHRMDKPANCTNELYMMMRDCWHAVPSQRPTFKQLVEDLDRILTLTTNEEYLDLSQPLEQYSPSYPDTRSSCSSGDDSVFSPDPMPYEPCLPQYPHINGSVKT

382 unique human kinases [5] = target: T5, 382 unique human kinases (Homo sapiens, UniProt P53667); settings: LIMK1, 10 uM; for remaining activity at 10 µM: read-out: % Enzyme Activity (relative to DMSO controls)
T5 construct: purchased Reaction Biology (HotSpot contract assay)
T5 sequence (P53667 whole entry): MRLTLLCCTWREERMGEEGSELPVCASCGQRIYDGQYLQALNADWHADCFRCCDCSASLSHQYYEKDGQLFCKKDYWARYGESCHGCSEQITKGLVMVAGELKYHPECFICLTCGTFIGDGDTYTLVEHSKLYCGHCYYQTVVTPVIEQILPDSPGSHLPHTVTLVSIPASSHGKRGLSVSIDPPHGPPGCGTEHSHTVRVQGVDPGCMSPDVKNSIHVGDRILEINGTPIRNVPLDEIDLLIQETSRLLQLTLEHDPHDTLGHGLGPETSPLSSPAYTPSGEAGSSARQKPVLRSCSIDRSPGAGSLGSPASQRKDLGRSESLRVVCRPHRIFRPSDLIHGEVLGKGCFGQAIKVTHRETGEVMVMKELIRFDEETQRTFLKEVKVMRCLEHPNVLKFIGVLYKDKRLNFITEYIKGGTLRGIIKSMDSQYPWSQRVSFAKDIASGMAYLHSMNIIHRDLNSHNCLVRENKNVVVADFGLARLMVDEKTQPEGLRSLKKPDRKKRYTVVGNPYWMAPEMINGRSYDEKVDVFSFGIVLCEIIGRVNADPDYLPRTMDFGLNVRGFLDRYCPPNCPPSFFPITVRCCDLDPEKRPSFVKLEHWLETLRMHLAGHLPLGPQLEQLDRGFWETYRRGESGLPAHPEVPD

382 unique human kinases [6] = target: T6, 382 unique human kinases (Homo sapiens, UniProt Q00536); settings: CDK16/cyclin Y (PCTAIRE), 10 uM; for remaining activity at 10 µM: read-out: % Enzyme Activity (relative to DMSO controls)
T6 construct: purchased Reaction Biology (HotSpot contract assay)
T6 sequence (Q00536 whole entry): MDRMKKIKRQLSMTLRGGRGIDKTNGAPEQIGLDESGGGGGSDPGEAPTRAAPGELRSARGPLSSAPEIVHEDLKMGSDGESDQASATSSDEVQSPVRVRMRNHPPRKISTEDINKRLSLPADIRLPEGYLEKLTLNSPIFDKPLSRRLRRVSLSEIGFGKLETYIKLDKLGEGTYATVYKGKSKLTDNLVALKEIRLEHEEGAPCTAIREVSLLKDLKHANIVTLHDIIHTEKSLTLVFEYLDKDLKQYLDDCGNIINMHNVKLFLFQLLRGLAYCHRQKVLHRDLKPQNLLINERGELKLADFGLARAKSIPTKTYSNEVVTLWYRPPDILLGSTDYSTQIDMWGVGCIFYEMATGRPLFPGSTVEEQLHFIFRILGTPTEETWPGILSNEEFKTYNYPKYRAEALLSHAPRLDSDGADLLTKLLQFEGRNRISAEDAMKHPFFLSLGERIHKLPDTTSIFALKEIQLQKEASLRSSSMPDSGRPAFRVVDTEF

382 unique human kinases [7] = target: T7, 382 unique human kinases (Homo sapiens, UniProt Q02763, P883A); settings: TIE2 (P883A), 10 uM; for remaining activity at 10 µM: read-out: % Enzyme Activity (relative to DMSO controls)
T7 construct: purchased Reaction Biology (HotSpot contract assay)
T7 sequence (Q02763 23-1124 P883A): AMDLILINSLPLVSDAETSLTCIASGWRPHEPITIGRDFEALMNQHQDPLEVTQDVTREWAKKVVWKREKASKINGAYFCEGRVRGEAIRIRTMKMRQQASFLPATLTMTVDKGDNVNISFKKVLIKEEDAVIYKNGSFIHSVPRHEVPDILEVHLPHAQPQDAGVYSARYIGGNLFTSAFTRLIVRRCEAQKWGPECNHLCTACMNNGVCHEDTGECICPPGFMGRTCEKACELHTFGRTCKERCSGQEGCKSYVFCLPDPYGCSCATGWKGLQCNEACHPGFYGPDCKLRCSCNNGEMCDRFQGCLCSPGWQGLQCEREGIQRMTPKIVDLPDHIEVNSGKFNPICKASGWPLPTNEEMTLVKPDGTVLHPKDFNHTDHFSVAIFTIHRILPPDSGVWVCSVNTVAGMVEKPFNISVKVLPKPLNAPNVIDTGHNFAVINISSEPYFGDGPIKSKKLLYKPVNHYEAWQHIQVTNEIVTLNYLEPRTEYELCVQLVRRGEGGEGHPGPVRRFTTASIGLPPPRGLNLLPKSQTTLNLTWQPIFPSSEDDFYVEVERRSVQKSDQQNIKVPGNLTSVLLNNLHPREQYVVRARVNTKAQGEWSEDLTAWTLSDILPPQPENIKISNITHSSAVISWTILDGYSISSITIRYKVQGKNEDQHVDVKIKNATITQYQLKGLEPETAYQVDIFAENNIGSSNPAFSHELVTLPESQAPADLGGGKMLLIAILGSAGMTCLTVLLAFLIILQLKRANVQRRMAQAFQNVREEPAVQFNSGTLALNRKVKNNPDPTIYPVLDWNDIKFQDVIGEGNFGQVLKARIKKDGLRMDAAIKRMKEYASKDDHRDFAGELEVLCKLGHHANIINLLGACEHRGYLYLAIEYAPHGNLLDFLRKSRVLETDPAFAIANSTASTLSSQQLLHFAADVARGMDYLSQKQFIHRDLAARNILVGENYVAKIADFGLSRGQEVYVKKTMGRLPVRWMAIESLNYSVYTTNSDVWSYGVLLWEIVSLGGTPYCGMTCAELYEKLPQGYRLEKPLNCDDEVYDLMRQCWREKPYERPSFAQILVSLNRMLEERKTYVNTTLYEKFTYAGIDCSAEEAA

382 unique human kinases [8] = target: T8, 382 unique human kinases (Homo sapiens, UniProt Q8TD08); settings: kinase ERK7/MAPK15, compound 10 uM; for remaining activity at 10 µM: read-out: % Enzyme Activity (relative to DMSO controls)
T8 construct: purchased Reaction Biology (HotSpot contract assay)
T8 sequence (Q8TD08 1-544): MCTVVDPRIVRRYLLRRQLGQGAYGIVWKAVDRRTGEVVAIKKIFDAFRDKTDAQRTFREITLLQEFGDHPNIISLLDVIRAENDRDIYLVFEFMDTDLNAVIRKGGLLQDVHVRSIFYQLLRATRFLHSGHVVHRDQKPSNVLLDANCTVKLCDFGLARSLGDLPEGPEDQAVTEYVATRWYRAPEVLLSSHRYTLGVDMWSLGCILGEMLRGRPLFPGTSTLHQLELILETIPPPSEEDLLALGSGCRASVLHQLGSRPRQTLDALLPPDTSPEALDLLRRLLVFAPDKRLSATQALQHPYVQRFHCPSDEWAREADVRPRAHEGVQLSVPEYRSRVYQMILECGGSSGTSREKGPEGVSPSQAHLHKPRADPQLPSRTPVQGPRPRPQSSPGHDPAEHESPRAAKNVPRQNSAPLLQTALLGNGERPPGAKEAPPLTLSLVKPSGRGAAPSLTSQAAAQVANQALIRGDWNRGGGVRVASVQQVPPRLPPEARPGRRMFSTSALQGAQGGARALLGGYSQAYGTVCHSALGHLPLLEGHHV

382 unique human kinases [9] = target: T9, 382 unique human kinases (Homo sapiens, UniProt P00519, G250E); settings: ABL1 (G250E), [ATP] 10 µM, compound 10 uM; for remaining activity at 10 µM: read-out: % Enzyme Activity (relative to DMSO controls)
T9 construct: purchased Reaction Biology (HotSpot contract assay)

382 unique human kinases [10] = target: T10, 382 unique human kinases (Homo sapiens, UniProt P06241); settings: FYN, [ATP] 30 µM
T10 construct: purchased Reaction Biology (HotSpot contract assay)

382 unique human kinases [11] = target: T11, 382 unique human kinases (Homo sapiens, UniProt P10721, A829P); settings: c-Kit (A829P), [ATP] 50 µM, compound 10 uM; for remaining activity at 10 µM: read-out: % Enzyme Activity (relative to DMSO controls)
T11 construct: purchased Reaction Biology (HotSpot contract assay)
T11 sequence (P10721 26-976 A829P): as the sequence (P10721 26-976 T670I) above, with I645T, A804P counted along it

382 unique human kinases [12] = target: T12, 382 unique human kinases (Homo sapiens, UniProt Q15118); settings: PDK1/PDHK1, [ATP] 50 µM, compound 10 uM; for remaining activity at 10 µM: read-out: % Enzyme Activity (relative to DMSO controls)
T12 construct: purchased Reaction Biology (HotSpot contract assay)
T12 sequence (Q15118 29-436): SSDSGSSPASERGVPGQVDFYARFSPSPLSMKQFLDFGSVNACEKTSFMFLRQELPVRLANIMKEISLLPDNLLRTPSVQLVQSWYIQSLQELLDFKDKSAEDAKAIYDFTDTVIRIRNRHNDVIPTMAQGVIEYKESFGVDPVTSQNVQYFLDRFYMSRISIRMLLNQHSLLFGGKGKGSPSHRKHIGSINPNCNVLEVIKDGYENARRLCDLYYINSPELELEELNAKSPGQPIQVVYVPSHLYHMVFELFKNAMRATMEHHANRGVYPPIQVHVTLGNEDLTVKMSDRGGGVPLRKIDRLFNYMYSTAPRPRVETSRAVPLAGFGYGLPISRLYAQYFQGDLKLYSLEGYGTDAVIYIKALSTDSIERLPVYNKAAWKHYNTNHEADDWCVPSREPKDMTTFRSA

Compound `CC(C)c1cc(-c2n[nH]c(=O)n2-c2ccc3c(ccn3C)c2)c(O)cc1O` [Ganetespib (STA9090)] has a remaining activity at 10 µM (382 unique human kinases [1]) of 83.5%, a remaining activity at 10 µM (382 unique human kinases [2]) of 84.6% and a remaining activity at 10 µM (382 unique human kinases [3]) of 67.1%. It also gave a remaining activity at 10 µM (382 unique human kinases [4]) of 79.4%, a remaining activity at 10 µM (382 unique human kinases [5]) of 67.6% and a remaining activity at 10 µM (382 unique human kinases [6]) of 78%. For the same compound, the remaining activity at 10 µM (382 unique human kinases [7]) was 74.5% and the remaining activity at 10 µM (382 unique human kinases [8]) was 84.8%.

`CC(C)c1cc(-c2n[nH]c(=O)n2-c2ccc3c(ccn3C)c2)c(O)cc1O` [Ganetespib] was tested, and the remaining activity at 10 µM (382 unique human kinases [9]) was 5.88%, the remaining activity at 1 µM (382 unique human kinases [10]; compound 1 uM, read-out: % Enzyme Activity (relative to DMSO controls)) was 47.6% and the remaining activity at 10 µM (382 unique human kinases [11]) was 49.5%. It also gave a remaining activity at 10 µM (382 unique human kinases [12]) of 54.4%.

In the case of `CCNC(=O)c1noc(-c2cc(C(C)C)c(O)cc2O)c1-c1ccc(CN2CCOCC2)cc1` [Luminespib (AUY-922)], the “% Enzyme Activity (relative to DMSO controls)” value (382 unique human kinases [1]) is reported as 86.84%, the remaining activity at 10 µM (382 unique human kinases [1]) is reported as 86.8% and the “% Enzyme Activity (relative to DMSO controls)” value (382 unique human kinases [2]) is reported as 102.76%. For the same compound, the remaining activity at 10 µM (382 unique human kinases [2]) was 104%, the remaining activity at 10 µM (382 unique human kinases [3]) was 84.5% and the “% Enzyme Activity (relative to DMSO controls)” value (382 unique human kinases [4]) was 97.20%. The remaining activity at 10 µM (382 unique human kinases [4]) was 98.6%, the “% Enzyme Activity (relative to DMSO controls)” value (382 unique human kinases [5]) was 101.40% and the remaining activity at 10 µM (382 unique human kinases [5]) was 102%. The “% Enzyme Activity (relative to DMSO controls)” value (382 unique human kinases [6]) was 100.35%, the remaining activity at 10 µM (382 unique human kinases [6]) was 100% and the “% Enzyme Activity (relative to DMSO controls)” value (382 unique human kinases [7]) was 100.72%. The remaining activity at 10 µM (382 unique human kinases [7]) was 104%, the “% Enzyme Activity (relative to DMSO controls)” value (382 unique human kinases [8]) was 97.45% and the remaining activity at 10 µM (382 unique human kinases [8]) was 102%.

`CCNC(=O)c1noc(-c2cc(C(C)C)c(O)cc2O)c1-c1ccc(CN2CCOCC2)cc1` [Luminespib] was tested, and the “% Enzyme Activity (relative to DMSO controls)” value (382 unique human kinases [9]) was 5.81%, the remaining activity at 10 µM (382 unique human kinases [9]) was 5.9% and the “% Enzyme Activity (relative to DMSO controls)” value (382 unique human kinases [10]; compound 10 uM) was 65.29%. The remaining activity at 10 µM (382 unique human kinases [10]; compound 10 uM, read-out: % Enzyme Activity (relative to DMSO controls)) was 65.6%, the “% Enzyme Activity (relative to DMSO controls)” value (382 unique human kinases [11]) was 84.14% and the remaining activity at 10 µM (382 unique human kinases [11]) was 85.3%. The “% Enzyme Activity (relative to DMSO controls)” value (382 unique human kinases [12]) was 56.21% and the remaining activity at 10 µM (382 unique human kinases [12]) was 60%.
